Measured values taken from paper PMC5320564 (Journal of molecular biology, 2011).
Positions count from the first letter of the chain named. In names and notes the source's numbering stands.

Assays:
EcPhnD-K181C:IANBD = EcPhnD-K181C:IANBD (Escherichia coli, UniProt P16682, K207C); assay: biochemical; type: binding
EcPhnD-Q17C:IANBD = EcPhnD-Q17C:IANBD (Escherichia coli, UniProt P16682, Q43C); type: binding
[1] = target: EcPhnD90-cpGFP.L1ADΔΔ.L297R,L301R (Escherichia coli, UniProt Q1R3F7, L323R/L327R, form not given); type: binding
EcPhnD87-cpGFP = type: binding, Escherichia coli
EcPhnD142-cpGFP = type: binding, Escherichia coli
[2] = tested on: EcPhnD with cpGFP inserted at position 147; type: binding, Escherichia coli
EcPhnD-Q267C:acrylodan = conditions: read-out: Phosphonate affinities (Kd); cited from earlier work
EcPhnD = EcPhnD (Escherichia coli, UniProt P16682); conditions: read-out: affinity; cited from earlier work
crystal structure = target: the molecule itself; assay: crystal structure

EcPhnD-K181C:IANBD, sequence (P16682 27-338 K207C): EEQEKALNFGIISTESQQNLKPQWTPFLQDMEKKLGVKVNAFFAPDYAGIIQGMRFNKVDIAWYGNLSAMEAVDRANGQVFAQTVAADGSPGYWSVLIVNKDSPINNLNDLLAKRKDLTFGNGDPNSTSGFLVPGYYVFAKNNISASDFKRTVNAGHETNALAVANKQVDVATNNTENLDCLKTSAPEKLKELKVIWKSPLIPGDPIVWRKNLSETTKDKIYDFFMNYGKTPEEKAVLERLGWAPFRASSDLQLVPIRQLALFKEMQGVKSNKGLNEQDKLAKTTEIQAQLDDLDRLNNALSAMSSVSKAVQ
EcPhnD-Q17C:IANBD, sequence (P16682 27-338 Q43C): as the sequence (P16682 27-338 K207C) above, with Q17C, C181K counted along it

Molecule: NCCP(=O)(O)O [2AEP, 2-aminoethylphosphonate]
- Kd (EcPhnD-K181C:IANBD): 540 ± 40 nM
- ΔF/F0 (EcPhnD-K181C:IANBD): −0.72±0.01
- Kd (EcPhnD-Q17C:IANBD): 11 ± 5 nM
- ΔF/F0 (EcPhnD-Q17C:IANBD): 1.2±0.1
- ΔF/F0 increase [1]: 1.6
- Kd ([1]; read-out: Phosphonate affinities (Kd)): 37000 ± 7000 nM
- affinity for 2AEP by ITC (in words) (EcPhnD87-cpGFP): high affinity
- affinity for 2AEP by ITC (in words) (EcPhnD142-cpGFP): dramatically decreased affinity
- affinity for 2AEP by ITC (in words) [2]: dramatically decreased affinity
- Kd (EcPhnD-Q267C:acrylodan): 5 nM
- Kd (EcPhnD): ~5 nM

Molecule: O=C(O)CNCP(=O)(O)O [Glyphosate (GP), Glyphosate]
- Kd (EcPhnD-K181C:IANBD): 260000 ± 20000 nM
- Kd (EcPhnD-Q267C:acrylodan): 650000 nM

B1: Selenomethionine-substituted EcPhnD (natural protein, E. coli, UniProt P16682 27-338, looked up)
chain: EEQEKALNFGIISTESQQNLKPQWTPFLQDMEKKLGVKVNAFFAPDYAGIIQGMRFNKVDIAWYGNLSAMEAVDRANGQVFAQTVAADGSPGYWSVLIVNKDSPINNLNDLLAKRKDLTFGNGDPNSTSGFLVPGYYVFAKNNISASDFKRTVNAGHETNALAVANKQVDVATNNTENLDKLKTSAPEKLKELKVIWKSPLIPGDPIVWRKNLSETTKDKIYDFFMNYGKTPEEKAVLERLGWAPFRASSDLQLVPIRQLALFKEMQGVKSNKGLNEQDKLAKTTEIQAQLDDLDRLNNALSAMSSVSKAVQ
modifications: selenomethionine in place of methionine
- stoichiometry N (crystal structure): 2

B2: EcPhnD H157A (natural protein, E. coli, UniProt P16682 27-338, looked up)
chain: B1 chain with H157A
- stoichiometry N (crystal structure): 2
